From patent publication US9353081B2, “Bicyclic dihydroquinoline-2-one derivatives” (Hoffmann-La Roche Inc., priority 2011, dated 2016)
Counter-ions that a name gives are not always drawn.

What was measured:
human CYP11B2 = human CYP11B2 (Homo sapiens (Human), UniProt P19099); assay: G-402 cellular enzyme assay, human CYP11B2 (aldosterone release, HTRF); format: cell-based; details: G-402 cells expressing human CYP11B2; 1 μM Deoxycorticosterone
Excerpt: (§1) Specifically we developed stable G-402 cells expressing ectopically human CYP11B1, human CYP11B2, human CYP11A1, cynomolgus CYP11B1 or cynomolgus CYP11B2 enzyme activity.
(§2) The expression plasmids contains the ORF for either human/cyno CYP11B1 or CYP11B2 under the control of a suitable promoter (CMV-promoter) and a suitable resistance marker (neomycin). Using standard techniques the expression plasmid is transfected into G-402 cells and these cells are then selected for expressing the given resistance markers. Individual cell-clones are then selected and assessed for displaying the desired enzymatic activity using 11-Deoxycorticosterone (Cyp11B2) or 11-Deoxycortisol (Cyp11B1) as a substrate.
(§3) For assaying enzymatic activity, cells were plated onto 96 well plates and incubated for 16 h. An aliquot of the supernatant is then transferred and analyzed for the concentration of the expected product (Aldosterone for CYP11B2; Cortisol for CYP11B1). The concentrations of these steroids can be determined using HTRF assays from CisBio analyzing either Aldosterone or Cortisol.
(§4) Inhibition of the release of produced steroids can be used as a measure of the respective enzyme inhibition by test compounds added during the cellular enzyme assay. The dose dependent inhibition of enzymatic activity by a compound is calculated by means of plotting added inhibitor concentrations x-axes) vs. measured steroid/product level (y-axes). The inhibition is then calculated by fitting the following 4-parameter sigmoidal function (Morgan-Mercer-Flodin (MMF) model) to the raw data points using the least squares method:
(§5) [formula] wherein, A is the maximum y value, B is the EC50 factor determined using XLFit, C is the minimum y value and D is the slope value.
(§6) EC50 values for compounds claimed herein were tested with the G402-based assay system described. Cyp11B2 enzyme activity was tested in presence of 1 μM Deoxycorticosterone and variable amounts of inhibitors; Cyp11B1 enzyme activity was tested in presence of 1 μM Deoxycortisol and variable amounts of inhibitors.

human CYP11B1 = human CYP11B1 (Homo sapiens (Human), UniProt P15538); assay: G-402 cellular enzyme assay, human CYP11B1 (cortisol release, HTRF); format: cell-based; details: G-402 cells expressing human CYP11B1; 1 μM Deoxycortisol
Excerpt: as §1, §2, §3, §4, §5, §6

Sequence of human CYP11B1 (P15538 25-503): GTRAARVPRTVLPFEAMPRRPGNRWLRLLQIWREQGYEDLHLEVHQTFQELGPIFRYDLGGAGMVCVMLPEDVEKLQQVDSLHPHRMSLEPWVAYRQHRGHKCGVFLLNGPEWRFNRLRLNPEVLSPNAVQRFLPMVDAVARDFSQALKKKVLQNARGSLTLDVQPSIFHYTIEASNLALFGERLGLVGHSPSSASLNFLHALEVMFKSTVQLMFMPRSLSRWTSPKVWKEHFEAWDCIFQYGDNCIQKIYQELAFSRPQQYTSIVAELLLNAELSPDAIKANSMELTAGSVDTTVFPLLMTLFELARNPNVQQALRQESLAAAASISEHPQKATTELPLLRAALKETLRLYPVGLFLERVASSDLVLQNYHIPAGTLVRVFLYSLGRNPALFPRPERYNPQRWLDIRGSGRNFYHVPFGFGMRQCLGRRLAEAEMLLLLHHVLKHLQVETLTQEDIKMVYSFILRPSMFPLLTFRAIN
Sequence of human CYP11B2 (P19099 25-503): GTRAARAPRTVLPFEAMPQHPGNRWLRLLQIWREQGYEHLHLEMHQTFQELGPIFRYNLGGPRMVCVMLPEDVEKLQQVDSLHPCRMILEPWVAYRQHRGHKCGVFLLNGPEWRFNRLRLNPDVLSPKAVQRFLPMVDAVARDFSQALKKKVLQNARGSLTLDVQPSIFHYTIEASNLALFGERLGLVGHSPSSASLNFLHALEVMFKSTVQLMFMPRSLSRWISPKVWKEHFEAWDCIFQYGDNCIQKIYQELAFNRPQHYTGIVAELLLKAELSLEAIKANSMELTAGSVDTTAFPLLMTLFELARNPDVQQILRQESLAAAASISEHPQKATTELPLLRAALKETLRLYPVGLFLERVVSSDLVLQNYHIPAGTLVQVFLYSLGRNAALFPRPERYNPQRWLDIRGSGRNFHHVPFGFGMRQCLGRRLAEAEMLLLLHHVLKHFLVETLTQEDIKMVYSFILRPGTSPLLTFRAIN

| Compound | EC50 (human CYP11B2) | EC50 (human CYP11B1) |
| --- | --- | --- |
| CCC(=O)N[C@@H]1c2cncc(-c3ccc4c(c3)CCC(=O)N4C)c2CC[C@@H]1F (single isomer, unassigned) [Example 51, (−)-N-[(7S,8R or 7R,8S)-7-Fluoro-4-(1-methyl-2-oxo-1,2,3,4-tetrahydro-quinolin-6-yl)-5,6,7,8-tetrahydro-isoquinolin-8-yl]-propionamide] | 1470 nM | 32300 nM |
| CCC(=O)N[C@H]1c2cncc(-c3cc4c(cc3F)N(C)C(=O)CC4)c2CC[C@@H]1F (single isomer, unassigned) [Example 54, (+)-N-[(7S,8S or 7R,8R)-7-Fluoro-4-(7-fluoro-1-methyl-2-oxo-1,2,3,4-tetrahydro-quinolin-6-yl)-5,6,7,8-tetrahydro-isoquinolin-8-yl]-propionamide] | 38.8 nM | 2390 nM |
| CN1C(=O)CCc2cc(-c3cncc4c3CCCN4CCN)ccc21 [Example 12, 6-[1-(2-Amino-ethyl)-1,2,3,4-tetrahydro-[1,7]naphthyridin-5-yl]-1-methyl-3,4-dihydro-1H-quinolin-2-one hydrochloride] | 4 nM | 1880 nM |
| CCC(=O)NC1CCCc2c(-c3cc(Cl)c4c(c3)CCC(=O)N4C)cncc21 (single isomer, unassigned; (+)) [Example 41, (+)-N—[(R or S)-4-(8-Chloro-1-methyl-2-oxo-1,2,3,4-tetrahydro-quinolin-6-yl)-5,6,7,8-tetrahydro-isoquinolin-8-yl]-propionamide] | 16.6 nM | 3530 nM |
| CCS(=O)(=O)NC1CCCc2c(-c3cc4c(cc3F)N(C)C(=O)CC4)cncc21 (single isomer, unassigned; (+)) [Example 32, (+)-(R or S)-Ethanesulfonic acid [4-(7-fluoro-1-methyl-2-oxo-1,2,3,4-tetrahydro-quinolin-6-yl)-5,6,7,8-tetrahydro-isoquinolin-8-yl]-amide] | 78.2 nM | 4240 nM |
| CCC(=O)N[C@@H]1c2cncc(-c3cc4c(cc3F)N(C)C(=O)CC4)c2CC[C@H]1F (single isomer, unassigned) [Example 56, (−)-N-[(7R,8R or 7S,8S)-7-Fluoro-4-(7-fluoro-1-methyl-2-oxo-1,2,3,4-tetrahydro-quinolin-6-yl)-5,6,7,8-tetrahydro-isoquinolin-8-yl]-propionamide] | 2780 nM | 14900 nM |
| CCS(=O)(=O)NC1CCc2c(-c3cc4c(cc3F)N(C)C(=O)CC4)cncc21 (racemic) [Example 25, (rac)-N-(4-(7-Fluoro-1-methyl-2-oxo-1,2,3,4-tetrahydroquinolin-6-yl)-6,7-dihydro-5H-cyclopenta[c]pyridin-7-yl)ethanesulfonamide] | 33.4 nM | 2980 nM |
| CCC(=O)N[C@H]1c2cncc(-c3ccc4c(c3)CCC(=O)N4C)c2CC[C@@H]1F (single isomer, unassigned) [Example 52, (+)-N-[(7S,8S or 7R,8R)-7-Fluoro-4-(1-methyl-2-oxo-1,2,3,4-tetrahydro-quinolin-6-yl)-5,6,7,8-tetrahydro-isoquinolin-8-yl]-propionamide] | 25.8 nM | 1590 nM |
| CCC(=O)NC1CCCc2c(-c3cc4c(cc3F)N(C)C(=O)CC4)cncc21 (single isomer, unassigned; (+)) [Example 30, (+)-(R or S)—N-[4-(7-fluoro-1-methyl-2-oxo-1,2,3,4-tetrahydro-quinolin-6-yl)-5,6,7,8-tetrahydro-isoquinolin-8-yl]-propionamide] | 30 nM | 3680 nM |
| CN1C(=O)CCc2cc(-c3cncc4c3CCCC4=O)ccc21 [Example 70, 1-Methyl-6-(8-oxo-5,6,7,8-tetrahydro-isoquinolin-4-yl)-3,4-dihydro-1H-quinolin-2-one] | 15.7 nM | 7170 nM |
| CCC(=O)N[C@H]1c2cncc(-c3cc4c(cc3F)N(C)C(=O)CC4)c2CC[C@H]1F (single isomer, unassigned) [Example 55, (+)-N-[(7R,8S or 7S,8R)-7-Fluoro-4-(7-fluoro-1-methyl-2-oxo-1,2,3,4-tetrahydro-quinolin-6-yl)-5,6,7,8-tetrahydro-isoquinolin-8-yl]-propionamide] | 158 nM | 2760 nM |
| CCC(=O)NC1CCc2c(-c3cc(Cl)c4c(c3)CCC(=O)N4C)cncc21 (single isomer, unassigned; (+)) [Example 60, (+)-(R or S)—N-(4-(8-Chloro-1-methyl-2-oxo-1,2,3,4-tetrahydroquinolin-6-yl)-6,7-dihydro-5H-cyclopenta[c]pyridin-7-yl)propionamide] | 8.8 nM | 1170 nM |
| CCS(=O)(=O)NC1CCc2c(-c3ccc4c(c3)CCC(=O)N4C)cncc21 (racemic) [Example 10, (rac)-N-(4-(1-Methyl-2-oxo-1,2,3,4-tetrahydroquinolin-6-yl)-6,7-dihydro-5H-cyclopenta[c]pyridin-7-yl)ethanesulfonamide] | 59 nM | 4170 nM |
| CCC(=O)N[C@H]1c2cncc(-c3ccc4c(c3)CCC(=O)N4C)c2CC[C@H]1F (single isomer, unassigned) [Example 53, (+)-N-[(7R,8S or 7S,8R)-7-Fluoro-4-(1-methyl-2-oxo-1,2,3,4-tetrahydro-quinolin-6-yl)-5,6,7,8-tetrahydro-isoquinolin-8-yl]-propionamide] | 122 nM | 3570 nM |
| CC(=O)N[C@@H]1CCCc2c(-c3ccc4c(c3)CCC(=O)N4C)cncc21 [Example 63, N—[(R)-4-(1-Methyl-2-oxo-1,2,3,4-tetrahydro-quinolin-6-yl)-5,6,7,8-tetrahydro-isoquinolin-8-yl]-acetamide] | 4.8 nM | 1190 nM |
| CCC(=O)N[C@H]1c2cncc(-c3ccc4c(c3)CCC(=O)N4C)c2CC[C@@H]1C (single isomer, unassigned) [Example 42, (+)-N-[(7S,8R or 7R,8S)-7-Methyl-4-(1-methyl-2-oxo-1,2,3,4-tetrahydro-quinolin-6-yl)-5,6,7,8-tetrahydro-isoquinolin-8-yl]-propionamide] | 14.5 nM | 524 nM |
| CCC(=O)NC1CCc2c(-c3ccc4c(c3)CCC(=O)N4C)cncc21 (racemic) [Example 7, (rac)-N-(4-(1-Methyl-2-oxo-1,2,3,4-tetrahydroquinolin-6-yl)-6,7-dihydro-5H-cyclopenta[c]pyridin-7-yl)propionamide] | 12 nM | 1110 nM |
| CCS(=O)(=O)NC1CCc2c(-c3cc4c(cc3F)N(C)C(=O)CC4)cncc21 (single isomer, unassigned; (+)) [Example 27, (+)-(R or S)—N-(4-(7-Fluoro-1-methyl-2-oxo-1,2,3,4-tetrahydroquinolin-6-yl)-6,7-dihydro-5H-cyclopenta[c]pyridin-7-yl)ethanesulfonamide] | 11.2 nM | 1890 nM |
| CCS(=O)(=O)NC1CCCc2c(-c3cc(Cl)c4c(c3)CCC(=O)N4C)cncc21 (single isomer, unassigned; (+)) [Example 38, (+)-Ethanesulfonic acid [(R or S)-4-(8-chloro-1-methyl-2-oxo-1,2,3,4-tetrahydro-quinolin-6-yl)-5,6,7,8-tetrahydro-isoquinolin-8-yl]-amide] | 422 nM | 15900 nM |
| CN1C(=O)CCc2cc(-c3cncc4c3CCCC4O)ccc21 (single isomer, unassigned) [Example 69, (R or S)-6-(8-Hydroxy-5,6,7,8-tetrahydro-isoquinolin-4-yl)-1-methyl-3,4-dihydroquinolin-2(1H)-one] | 2 nM | 54.1 nM |
| CCC(=O)NC1CCCc2c(-c3ccc4c(c3)CCC(=O)N4C)cncc21 (racemic) [Example 1, (rac)-N-(4-(1-Methyl-2-oxo-1,2,3,4-tetrahydroquinolin-6-yl)-5,6,7,8-tetrahydroisoquinolin-8-yl)propionamide] | 30 nM | 2370 nM |
| CN1C(=O)CCc2cc(-c3cncc4c3CCCC4O)ccc21 (single isomer, unassigned) [Example 68, (S or R)-6-(8-Hydroxy-5,6,7,8-tetrahydro-isoquinolin-4-yl)-1-methyl-3,4-dihydroquinolin-2(1H)-one] | 77.4 nM | 1620 nM |
| CCS(=O)(=O)NC1CCCc2c(-c3ccc4c(c3)CCC(=O)N4C)cncc21 (single isomer, unassigned; (+)) [Example 6, (+)-(S or R)—N-(4-(1-Methyl-2-oxo-1,2,3,4-tetrahydroquinolin-6-yl)-5,6,7,8-tetrahydroisoquinolin-8-yl)ethanesulfonamide] | 48 nM | 1750 nM |
| CCS(=O)(=O)NC1CCCc2c(-c3cc4c(cc3F)N(C)C(=O)CC4)cncc21 (single isomer, unassigned; (-)) [Example 31, (−)-(S or R)-Ethanesulfonic acid [4-(7-fluoro-1-methyl-2-oxo-1,2,3,4-tetrahydro-quinolin-6-yl)-5,6,7,8-tetrahydro-isoquinolin-8-yl]-amide] | 1040 nM | 14500 nM |
